Measurements: PubChem BioAssay (NCI)
“And” between values parts separate entries of the source, which are not always exact repeats. Identical values can stand only once.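 48-hour exposure; five concentrations; linearly interpolated endpoints. Definition used: TGI = concentration required for complete inhibition of growth.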

What was measured:
Experiment in all cases: NCI tumour cell line growth inhibition, 48 h
COLO 205 colon = tested on: COLO 205 colon
ACHN renal = tested on: ACHN renal
SF-268 CNS = tested on: SF-268 CNS
RXF 393 renal = tested on: RXF 393 renal
MDA-MB-435 = tested on: MDA-MB-435
A498 renal = tested on: A498 renal
HOP-92 NSCLC = tested on: HOP-92 NSCLC
NCI-H23 lung = tested on: NCI-H23 lung
LOX IMVI melanoma = tested on: LOX IMVI melanoma
U251 CNS = tested on: U251 CNS
RPMI-8226 leukemia = tested on: RPMI-8226 leukemia
HCT-15 colon = tested on: HCT-15 colon
DU-145 prostate = tested on: DU-145 prostate
NCI-H226 lung = tested on: NCI-H226 lung
OVCAR-3 ovarian = tested on: OVCAR-3 ovarian
SR leukemia = tested on: SR leukemia
786-0 renal = tested on: 786-0 renal
HS 578T breast = tested on: HS 578T breast
HT29 colon = tested on: HT29 colon

SMILES | TGI (COLO 205 colon) | TGI (ACHN renal) | TGI (SF-268 CNS) | TGI (RXF 393 renal) | TGI (MDA-MB-435) | TGI (A498 renal) | TGI (HOP-92 NSCLC) | TGI (NCI-H23 lung) | TGI (LOX IMVI melanoma) | TGI (U251 CNS) | TGI (RPMI-8226 leukemia) | TGI (HCT-15 colon) | TGI (DU-145 prostate) | TGI (NCI-H226 lung) | TGI (OVCAR-3 ovarian) | TGI (SR leukemia) | TGI (786-0 renal) | TGI (HS 578T breast) | TGI (HT29 colon)
CCOC(=O)[C@@H]1ON2O[C@H](OC3CCCCC3c3ccccc3)C[C@H]3OC(=O)[C@@H]1C32 (stereo partly drawn) | > 100 µM | > 100 µM | > 100 µM | > 100 µM | > 100 µM | > 100 µM | > 100 µM | > 100 µM | > 100 µM | > 100 µM | > 100 µM | > 100 µM | > 100 µM | > 100 µM | > 100 µM | > 100 µM | > 100 µM | > 100 µM | > 100 µM
CCN(CC)c1ccc2cc(C(=O)NCc3ccccc3)c(=N)oc2c1 | > 59.7 µM | > 100 µM | > 100 µM | > 100 µM | > 100 µM | > 100 µM | > 100 µM | 97 µM | > 100 µM | > 100 µM | > 59.7 µM | > 100 µM | > 100 µM | > 100 µM | > 100 µM | > 100 µM | > 100 µM | > 88 µM | 36 µM
NC(=O)C(=CNC(=S)Nc1ccc(S(=O)(=O)Nc2ccccn2)cc1)C(N)=O | > 100 µM | > 100 µM | > 100 µM | > 100 µM | > 100 µM | > 100 µM | > 100 µM | > 100 µM | > 100 µM | > 100 µM | > 100 µM | > 100 µM | > 100 µM | > 100 µM | > 100 µM | > 100 µM | > 100 µM | > 100 µM | > 100 µM
CN(C)C(=O)OC1=CC2CCC(C1)N2C (stereo not drawn) | > 100 µM | > 100 µM | > 100 µM | > 100 µM | > 100 µM | > 100 µM | > 100 µM | > 100 µM | > 100 µM | > 100 µM | > 100 µM | > 100 µM | > 100 µM | > 100 µM | > 100 µM | > 100 µM | > 100 µM | > 100 µM | > 100 µM
CC(C)CC1c2[nH]c3ccccc3c2C[C@H]2C(=O)NC(CCCCNC(=O)OC(C)(C)C)C(=O)N12 (stereo partly drawn) | 72.2 µM | > 100 µM | > 100 µM | 27.3 µM | > 100 µM | > 100 µM | 89.8 µM | > 100 µM | > 100 µM | > 100 µM | 58.5 µM | > 100 µM | > 100 µM | > 100 µM | 16.6 µM | 50 µM | 50.7 µM | 25.6 µM | 64.6 µM
Cc1cc2ccc(OC(=O)c3ccc(N=C(N)N)cc3)cc2oc1=O | 55.9 µM | > 100 µM | 73.8 µM | > 100 µM | 58.1 µM | 43.9 µM | > 100 µM | 46.5 µM | > 100 µM | 45.6 µM | 55.1 µM | > 100 µM | > 100 µM | 56.2 µM | 45.9 µM | 58.4 µM | 64.6 µM | 71.6 µM | 70.4 µM
CC(=O)C1(C)CC(C#N)(C#N)C(C#N)=C1N (stereo not drawn) | > 100 µM | > 100 µM | > 100 µM | > 100 µM | > 100 µM | > 100 µM | 55.3 µM | > 100 µM | > 100 µM | > 100 µM | > 100 µM | > 100 µM | > 100 µM | > 100 µM | > 100 µM | > 100 µM | > 100 µM | > 100 µM | > 100 µM
CC1OC(OC2C(OC(=O)[C@]34CCC(C)(C)C[C@H]3C3=CC[C@@H]5[C@@]6(C)CC[C@H](OC7OC(CO)C(O)C(O)C7OC7OC(CO)C(O)C(O)C7O)C(C)(C)[C@@H]6CC[C@@]5(C)[C@]3(C)CC4)OCC(O)C2O)C(O)C(O)C1OC1OCC(O)C(OC2OCC(O)C(O)C2O)C1O (stereo partly drawn) | 3.42 µM and 6.5 µM | 15.4 µM and 18.3 µM | 38.7 µM and 20.5 µM | 20.5 µM and 24.7 µM | 3.59 µM and 3.22 µM | 4.44 µM and 3.95 µM | 5.81 µM and 4.97 µM | 8.52 µM and 6.54 µM | 24 µM and 23.6 µM | 22.9 µM and 19.7 µM | 16.1 µM and 17.4 µM | 27 µM and 26.8 µM | 19.2 µM and 20.8 µM | 13.9 µM and 12.4 µM | 22.3 µM and 34.6 µM | 8.14 µM and 8.97 µM | 18.9 µM and 19.7 µM | 30.3 µM and 29.3 µM | 10.8 µM and 9.01 µM
O=[N+]([O-])c1ccc(C2=NOC(c3ccc(Cl)cc3)N2C23CC4CC(CC(C4)C2)C3)cc1 (stereo not drawn) | > 100 µM | > 100 µM | > 100 µM | 9.89 µM | > 100 µM | > 100 µM | > 100 µM | > 100 µM | > 100 µM | > 100 µM | > 100 µM | > 100 µM | > 100 µM | > 100 µM | > 100 µM | > 100 µM | > 100 µM | > 100 µM | > 100 µM
O=C1/C(=C/c2[nH]ncc2-c2ccc(Cl)cc2)C(=O)N(c2ccccc2)C1c1ccccc1 (stereo not drawn) | 32.8 µM | 85.2 µM | 40.9 µM | 49.4 µM | 35.5 µM | 69.6 µM | 76 µM | 28.8 µM | 32.4 µM | 50.2 µM | 32.2 µM | 36.9 µM | 50.3 µM | 67.3 µM | 26.9 µM | 30 µM | 44.7 µM | 24.2 µM | 27.5 µM
COc1ccc(NC(=O)CC(=O)NNC(Sc2ccccc2)c2cc(N=Nc3ccc(Br)cc3)ccc2O)cc1 (stereo not drawn) | > 10 µM | > 10 µM | > 10 µM | > 10 µM | > 10 µM | > 10 µM | > 10 µM | > 10 µM | > 10 µM | > 10 µM | > 10 µM | > 10 µM | > 10 µM | > 10 µM | > 10 µM | > 10 µM | > 10 µM | > 10 µM | > 10 µM
Cc1ccc(OCC2=NC3S/C(=C/c4ccc([N+](=O)[O-])o4)C(=O)N3N2)cc1 (stereo not drawn) | 11.6 µM | 3.14 µM | 14.9 µM | 28.5 µM | 19.8 µM | 37.8 µM | 8.8 µM | 28.8 µM | 13.3 µM | 29.5 µM | 6.16 µM | 7.04 µM | 20.5 µM | 33.3 µM | 4.12 µM | 11.4 µM | 23.7 µM | 89 µM | 22.6 µM
